According to patent US3962282A, “Juvenile hormone mimics” (priority 1974, dated 1976):

Experiments:
Tenebrio molitor pupae = assay: topical application to Tenebrio molitor pupae, maturation inhibition; assay type: in vivo; details: rating scale 0-4
Summary of the method: (§1)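 Compounds applied topically, 1 μL acetone solution at 10%, 1% or 0.5%, to ten specimens per insect per concentration, alongside acetone and untreated controls; scored after about 8–10 days. Juvenile/adult characteristics rated 0–3 (Tenebrio 0–4), ≥2 meaning unable to reproduce; unreported specimens died during metamorphosis.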

milkweed bug = assay: topical application to milkweed bug, fourth nymphal stage, maturation inhibition; assay type: in vivo; details: rating scale 0-3
Summary of the method: as §1

wax moth = assay: topical application to wax moth, fifth larval stage, maturation inhibition; assay type: in vivo
Summary of the method: as §1

Mexican bean beetle = assay: topical application to Mexican bean beetle, fourth larval stage, maturation inhibition; assay type: in vivo; details: rating scale 0-3
Summary of the method: as §1

[1] = system: Aedes aegypti mosquito larvae; assay: mosquito larvae in aqueous solutions, adult emergence; assay type: in vivo; details: for number of adults, Jar 1 Dead / number of adults, Jar 1 Living / number of adults, Jar 2 Dead / number of adults, Jar 2 Living: 13 days
Experimental: Two compounds, 7,8-epoxy-4-ethyl-8-methyl-1-(3,4-methylenedioxyphenyl)-3-decene and 2,6-diemthyl-9-(3,4-methylenedioxyphenyl)-2,6-nonadiene, were tested against Aedes aegypti mosquito larvae in aqueous solutions at concentrations of 10, 5, 2.5. 1.25 and 0.625 ppm. each. Ninety milliliters of each solution were placed in a pint jar and 30 five-day-old mosquito larvae were added to each jar. Two tests were run at each concentration and control tests employing only solvent with no compound were also run. Food was added to each jar, the jars were covered with cloths, and maintained at 29°C. until adults emerged in the control jars. The number of adults in the test jars was determined.

[2] = system: Housefly (Musca domestica); assay: housefly rearing diet test, percent adult emergence; assay type: in vivo; details: for control: 100 ppm
Experimental: Test compounds were mixed with the rearing diet of houseflys at various levels. The prepared diet was then placed in an 8 oz. drinking cup. Three cups were prepared for each treatment level and three control cups. Housefly eggs (Musca domestica) were placed in each cup and they were maintained at 28°C. for 1 week. Fifty pupae were then removed from each cup and placed in a petri dish. After the control pupae had emerged into adults, the percent emergence in each dish was recorded. The test compounds used were 7,8-epoxy-4-ethyl-8-methyl-1-(3,4-methylenedioxyphenyl)-3-decene, 4,8-dimetyl-1-(3,4-methylenedioxyphenyl)-2,6-nonadiene and 2,6-dichloro-2,6-dimethyl-9-(3,4-methylenedioxyphenyl)nonane.

housefly larvae = assay: topical application to housefly larvae; assay type: in vivo, Musca domestica; details: scale 0-2
Experimental: The compounds were applied in acetone solution at concentrations of 10 percent, 1 percent and 0.5 percent. One microliter of the acetone solution was applied to each test specimen. Ten test specimens were employed for each insect at each concentration and compared to ten acetone controls and ten zero controls. Approximately eight to ten days were required before results could be ascertained.
A number of compounds were tested against housefly larvae by topical application in an acetone solution using the method described above for the primary test against Tenebrio, milkweed bug, wax moth, and Mexican bean bettel. The results with the first compound are reported on a scale of 0 to 3 with 0 indicating a normal adult, 1 indicating an adult with deformed wings, 2 indicating a partially emerged adult, and 3 indicating no evidence of emergence. The results for the other compounds are reported onn a scale of 0 to 2 with 0 indicating a normal adult, 1 indicating a partially emerged adult and 2 indicating no evidence of emergence.

aphid nymphs = assay: application to aphid nymphs in acetone; assay type: in vivo, Aphis gossypi; details: 3 days
Experimental: In another test, female aphids were placed on young squash plants and allowed to produce young for 24 hours. After 24 hours, all adult aphids were removed from the plants and the young were maintained on the plants for an additional 48-hour period. This gave an aphid nymph population having an age of 48 to 72 hours. To each nymph was applied […]. of a 10 percent, 1 percent, or 0.5 percent solution of 2.6- dimethyl-9-(3,4-methylenedioxyphenyl)-2,6-nonadiene or 7,8-epoxy-4-ethyl-8-methyl-1-(3,4-methylenedioxyphenyl)-3-decene in acetone and the aphid nymphs were transferred to new squash plants and observed for possible effects. Ten nymphs were treated with each concentration of each compound and 10 were treated with acetone alone while 10 were not treated to serve as controls. […] There was only one dead nymph treated with acetone alone and one dead nymph in the nontreated controls.

alfalfa weevil larvae = assay: topical application to alfalfa weevil larvae; assay type: in vivo; details: 10 percent solution in acetone, all controls reached normal adulthood
Source text: A number of compounds were applied topically to alfalfa weevil larvae as a 10 percent solution in acetone. Acetone and nontreated controls were also run. Ten larvae were used in each test. The number of normal adults emerging from the larvae was observed. In each case, all the acetone and nontreated controls reached normal adulthood. The number of normal adults from treated larvae are reported below.

[3] = 10% in acetone, 1 microliter topical, rating scale 0 (no effect) to 3 (maximum)

CCC(=CCCc1ccc2c(c1)OCO2)CCC1OC1(C)CC (centres unmarked) [7,8-epoxy-4-ethyl-8-methyl-1-(3,4-methylenedioxyphenyl)-3-decene]
number of specimens in rating 4 (Tenebrio molitor pupae; 0.5%): 10 specimens | number of specimens in rating 4 (Tenebrio molitor pupae; 1%): 10 specimens | number of specimens in rating 3 (milkweed bug; 0.5%): 9 specimens | number of specimens in rating 3 (milkweed bug; 1%): 8 specimens | number of specimens in rating 0 (wax moth; 0.5%, rating scale 0-3): 1 specimens | number of specimens in rating 3 (wax moth; 0.5%, rating scale 0-3): 9 specimens | number of specimens in rating 3 (wax moth; 1%, rating scale 0-3): 10 specimens | number of specimens in rating 3 (Mexican bean beetle; 0.5%): 10 specimens | number of specimens in rating 3 (Mexican bean beetle; 1%): 10 specimens | number of adults, Jar 1 Dead ([1]; 0.625 ppm): 0 | number of adults, Jar 1 Living ([1]; 0.625 ppm): 0 | number of adults, Jar 2 Dead ([1]; 0.625 ppm): 0 | number of adults, Jar 2 Living ([1]; 0.625 ppm): 0 | number of adults, Jar 1 Dead ([1]; 1.25 ppm): 0 | number of adults, Jar 1 Living ([1]; 1.25 ppm): 0 | number of adults, Jar 2 Dead ([1]; 1.25 ppm): 0 | number of adults, Jar 2 Living ([1]; 1.25 ppm): 0 | number of adults, Jar 1 Dead ([1]; 2.5 ppm): 0 | number of adults, Jar 1 Living ([1]; 2.5 ppm): 0 | number of adults, Jar 2 Dead ([1]; 2.5 ppm): 0 | number of adults, Jar 2 Living ([1]; 2.5 ppm): 0 | number of adults, Jar 1 Dead ([1]; 5 ppm): 0 | number of adults, Jar 1 Living ([1]; 5 ppm): 0 | number of adults, Jar 2 Dead ([1]; 5 ppm): 0 | number of adults, Jar 2 Living ([1]; 5 ppm): 0 | number of adults, Jar 1 Dead ([1]; 10 ppm): 0 | number of adults, Jar 1 Living ([1]; 10 ppm): 0 | number of adults, Jar 2 Dead ([1]; 10 ppm): 0 | number of adults, Jar 2 Living ([1]; 10 ppm): 0 | control ([1]; at concentrations as low as 0.625 ppm): 100% | live adults in the jars ([1]; nonadiene at 10, 5, and 2.5 ppm, decene at any concentration): never any live adults | percent adult emergence, Cup 1 ([2]; 0.1 ppm in diet): 100% | percent adult emergence, Cup 2 ([2]; 0.1 ppm in diet): 100% | percent adult emergence, Cup 3 ([2]; 0.1 ppm in diet): 100% | percent adult emergence, Cup 1 ([2]; 1 ppm in diet): 100% | percent adult emergence, Cup 2 ([2]; 1 ppm in diet): 100% | percent adult emergence, Cup 3 ([2]; 1 ppm in diet): 100% | percent adult emergence, Cup 1 ([2]; 10 ppm in diet): 100% | percent adult emergence, Cup 2 ([2]; 10 ppm in diet): 100% | percent adult emergence, Cup 3 ([2]; 10 ppm in diet): 100% | control [2]: ≥ 80% | percent adult emergence, Cup 1 ([2]; 100 ppm in diet): 10% | percent adult emergence, Cup 2 ([2]; 100 ppm in diet): 20% | percent adult emergence, Cup 3 ([2]; 100 ppm in diet): 10% | number in rating 0 (normal adult) (housefly larvae; 0.5%): 6 | number in rating 2 (no evidence of emergence) (housefly larvae; 0.5%): 4 | number in rating 0 (normal adult) (housefly larvae; 1%): 5 | number in rating 1 (partially emerged adult) (housefly larvae; 1%): 1 | number in rating 2 (no evidence of emergence) (housefly larvae; 1%): 4 | number in rating 2 (no evidence of emergence) (housefly larvae; 10%): 10 | dead nymphs (aphid nymphs; 0.5 percent): nine of the ten | dead nymphs (aphid nymphs; 1 percent): all of the nymphs | dead nymphs (aphid nymphs; 10 percent): all of the nymphs

CC(C)=CCC/C(C)=C/CCc1ccc(Cl)cc1 [trans-2,6-dimethyl-9-(4-chlorophenyl)-2,6-nonadiene]
number of specimens in rating 0 (Tenebrio molitor pupae; 0.5%): 10 specimens | number of specimens in rating 0 (Tenebrio molitor pupae; 1%): 4 specimens | number of specimens in rating 1 (Tenebrio molitor pupae; 1%): 3 specimens | number of specimens in rating 3 (Tenebrio molitor pupae; 1%): 3 specimens | number of specimens in rating 4 (Tenebrio molitor pupae; 10%): 10 specimens | number of specimens in rating 3 (milkweed bug; 0.5%): 10 specimens | number of specimens in rating 3 (milkweed bug; 1%): 10 specimens | number of specimens in rating 3 (milkweed bug; 10%): 10 specimens | number of specimens in rating 0 (wax moth; 0.5%, rating scale 0-3): 10 specimens | number of specimens in rating 0 (wax moth; 1%, rating scale 0-3): 9 specimens | number of specimens in rating 2 (wax moth; 1%, rating scale 0-3): 1 specimens | number of specimens in rating 0 (wax moth; [3]): 6 specimens | number of specimens in rating 1 (wax moth; 10%, rating scale 0-3): 1 specimens | number of specimens in rating 2 (wax moth; 10%, rating scale 0-3): 3 specimens | number of specimens in rating 3 (Mexican bean beetle; 0.5%): 10 specimens | number of specimens in rating 3 (Mexican bean beetle; 1%): 10 specimens | number of specimens in rating 3 (Mexican bean beetle; 10%): 10 specimens | number in rating 0 (normal adult) (housefly larvae; 0.5%): 4 | number in rating 2 (no evidence of emergence) (housefly larvae; 0.5%): 6 | number in rating 0 (normal adult) (housefly larvae; 1%): 3 | number in rating 1 (partially emerged adult) (housefly larvae; 1%): 3 | number in rating 2 (no evidence of emergence) (housefly larvae; 1%): 4 | number in rating 0 (normal adult) (housefly larvae; 10%): 3 | number in rating 1 (partially emerged adult) (housefly larvae; 10%): 1 | number in rating 2 (no evidence of emergence) (housefly larvae; 10%): 5

CC(C)(Cl)CCCC(C)(Cl)CCCc1ccc2c(c1)OCO2 (centres unmarked) [2,6-dichloro-2,6-dimethyl-9-(3,4-methylenedioxyphenyl)nonane]
number of specimens in rating 1 (Tenebrio molitor pupae; 0.5%): 2 specimens | number of specimens in rating 2 (Tenebrio molitor pupae; 0.5%): 8 specimens | number of specimens in rating 2 (Tenebrio molitor pupae; 1%): 10 specimens | number of specimens in rating 2 (Tenebrio molitor pupae; 10%): 1 specimens | number of specimens in rating 3 (Tenebrio molitor pupae; 10%): 9 specimens | number of specimens in rating 3 (milkweed bug; 0.5%): 8 specimens | number of specimens in rating 3 (milkweed bug; 1%): 10 specimens | number of specimens in rating 3 (milkweed bug; 10%): 5 specimens | number of specimens in rating 0 (wax moth; 0.5%, rating scale 0-3): 10 specimens | number of specimens in rating 0 (wax moth; 1%, rating scale 0-3): 10 specimens | number of specimens in rating 0 (wax moth; [3]): 10 specimens | number of specimens in rating 0 (Mexican bean beetle; 0.5%): 8 specimens | number of specimens in rating 1 (Mexican bean beetle; 0.5%): 2 specimens | number of specimens in rating 0 (Mexican bean beetle; 1%): 5 specimens | number of specimens in rating 1 (Mexican bean beetle; 1%): 3 specimens | number of specimens in rating 2 (Mexican bean beetle; 1%): 2 specimens | number of specimens in rating 1 (Mexican bean beetle; 10%): 1 specimens | number of specimens in rating 2 (Mexican bean beetle; 10%): 4 specimens | number of specimens in rating 3 (Mexican bean beetle; 10%): 5 specimens | percent adult emergence, Cup 1 ([2]; 0.1 ppm in diet): 100% | percent adult emergence, Cup 2 ([2]; 0.1 ppm in diet): 100% | percent adult emergence, Cup 3 ([2]; 0.1 ppm in diet): 100% | percent adult emergence, Cup 1 ([2]; 1 ppm in diet): 100% | percent adult emergence, Cup 2 ([2]; 1 ppm in diet): 100% | percent adult emergence, Cup 3 ([2]; 1 ppm in diet): 100% | percent adult emergence, Cup 1 ([2]; 10 ppm in diet): 100% | percent adult emergence, Cup 2 ([2]; 10 ppm in diet): 90% | percent adult emergence, Cup 3 ([2]; 10 ppm in diet): 90% | control [2]: 100% | percent adult emergence, Cup 1 ([2]; 100 ppm in diet): 0% | percent adult emergence, Cup 2 ([2]; 100 ppm in diet): 0% | percent adult emergence, Cup 3 ([2]; 100 ppm in diet): 0% | number in rating 0 (normal adult) (housefly larvae; 0.5%): 2 | number in rating 2 (no evidence of emergence) (housefly larvae; 0.5%): 8 | number in rating 0 (normal adult) (housefly larvae; 1%): 1 | number in rating 2 (no evidence of emergence) (housefly larvae; 1%): 9 | number in rating 2 (no evidence of emergence) (housefly larvae; 10%): 10

COc1cc(CCC=C(C)CCC=C(C)C)cc(OC)c1 [9-(3,5-dimethoxyphenyl)-2,6-dimethyl-2,6-nonadiene]
Number of Adults (normal adults from ten treated larvae) (alfalfa weevil larvae): 8
